Laboratory results taken from PubChem BioAssay (NCI).
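96-well plates; 48 h exposure; 5 concentrations. Endpoints by linear interpolation between flanking doses. Not reached: highest tested concentration assigned. TGI is the concentration that stops growth completely.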

Assays:
Assay in all cases: NCI tumour cell line growth inhibition, 48 h
[1] = test system: A549 NSCLC
[2] = test system: SK-OV-3 ovarian
[3] = test system: UO-31 renal
[4] = test system: HOP-62 NSCLC
[5] = test system: RPMI-8226 leukemia
[6] = test system: COLO 205 colon
[7] = test system: M14 melanoma
[8] = test system: T-47D breast
[9] = test system: HCT-116 colon
[10] = test system: CAKI-1 renal
[11] = test system: OVCAR-8 ovarian
[12] = test system: HCC-2998 colon
[13] = test system: HOP-92 NSCLC
[14] = test system: MCF7 breast
[15] = test system: SN12C renal
[16] = test system: MOLT-4 leukemia
[17] = test system: NCI-H23 lung
[18] = test system: SF-295 CNS
[19] = test system: CCRF-CEM leukemia
[20] = test system: HT29 colon
[21] = test system: SR leukemia
[22] = test system: U251 CNS
[23] = test system: OVCAR-3 ovarian
[24] = test system: SK-MEL-5 melanoma
[25] = test system: NCI/ADR-RES ovarian
[26] = test system: SK-MEL-28 melanoma
[27] = test system: SW-620 colon
[28] = test system: OVCAR-5 ovarian
[29] = test system: OVCAR-4 ovarian
[30] = test system: SNB-19 CNS
[31] = test system: UACC-257 melanoma
[32] = test system: ACHN renal
[33] = test system: DU-145 prostate
[34] = test system: PC-3 prostate
[35] = test system: SNB-75 CNS
[36] = test system: HL-60(TB) leukemia
[37] = test system: LOX IMVI melanoma
[38] = test system: HS 578T breast
[39] = test system: NCI-H460 lung
[40] = test system: MDA-N
[41] = test system: HCT-15 colon
[42] = test system: NCI-H226 lung
[43] = test system: IGROV1 ovarian
[44] = test system: TK-10 renal
[45] = test system: SK-MEL-2 melanoma
[46] = test system: NCI-H522 lung
[47] = test system: K-562 leukemia
[48] = test system: MDA-MB-231 breast
[49] = test system: MDA-MB-435
[50] = test system: 786-0 renal
[51] = test system: MALME-3M melanoma
[52] = test system: EKVX NSCLC
[53] = test system: UACC-62 melanoma
[54] = test system: SF-268 CNS
[55] = test system: A498 renal
[56] = test system: RXF 393 renal
[57] = test system: SF-539 CNS
[58] = test system: BT-549 breast
[59] = test system: KM12 colon

For `CCP(=O)(CC)C(Cl)(Cl)C(O)C(Cl)(Cl)Cl` (stereo not drawn), the TGI [1] was greater than 100 µM, the TGI [2] was greater than 100 µM and the TGI [3] was greater than 100 µM. The TGI [4] was greater than 100 µM, the TGI [5] was greater than 100 µM and the TGI [6] was greater than 100 µM. It also gave a TGI [7] greater than 100 µM, a TGI [8] greater than 100 µM and a TGI [9] greater than 100 µM. The TGI [10] was greater than 100 µM, the TGI [11] was greater than 100 µM and the TGI [12] was greater than 100 µM. For the same compound, the TGI [13] was greater than 100 µM, the TGI [14] was greater than 100 µM and the TGI [15] was greater than 100 µM. The TGI [16] was greater than 100 µM, the TGI [17] was greater than 100 µM and the TGI [18] was greater than 100 µM. The TGI [19] was greater than 100 µM, the TGI [20] was greater than 100 µM and the TGI [21] was greater than 100 µM. For the same compound, the TGI [22] was greater than 100 µM, the TGI [23] was greater than 100 µM and the TGI [24] was greater than 100 µM. The TGI [25] was greater than 100 µM, the TGI [26] was greater than 100 µM and the TGI [27] was greater than 100 µM. It also gave a TGI [28] greater than 100 µM, a TGI [29] greater than 100 µM and a TGI [30] greater than 100 µM. For the same compound, the TGI [31] was greater than 100 µM, the TGI [32] was greater than 100 µM and the TGI [33] was greater than 100 µM. It also gave a TGI [34] greater than 100 µM, a TGI [35] greater than 100 µM and a TGI [36] greater than 100 µM. For the same compound, the TGI [37] was greater than 100 µM, the TGI [38] was greater than 100 µM and the TGI [39] was greater than 100 µM. For the same compound, the TGI [40] was greater than 100 µM, the TGI [41] was greater than 100 µM and the TGI [42] was greater than 100 µM. The TGI [43] was greater than 100 µM, the TGI [44] was greater than 100 µM and the TGI [45] was greater than 100 µM. It also gave a TGI [46] greater than 100 µM, a TGI [47] greater than 100 µM and a TGI [48] greater than 100 µM.

Compound `CO[C@H]1O[C@@H]2OC3(C)CCC4[C@H](C)CCC([C@H]1C)[C@]42OO3` (stereo partly drawn) has a TGI [1] greater than 100 µM, a TGI [2] greater than 100 µM and a TGI [3] greater than 100 µM. The TGI [4] was greater than 100 µM, the TGI [5] was greater than 100 µM and the TGI [6] was greater than 100 µM. It also gave a TGI [7] greater than 100 µM, a TGI [49] greater than 100 µM and a TGI [8] greater than 100 µM. For the same compound, the TGI [9] was greater than 100 µM, the TGI [10] was greater than 100 µM and the TGI [11] was greater than 100 µM. It also gave a TGI [12] greater than 100 µM, a TGI [13] greater than 100 µM and a TGI [50] greater than 100 µM. The TGI [51] was greater than 100 µM, the TGI [52] was greater than 100 µM and the TGI [15] was greater than 100 µM. The TGI [16] was greater than 100 µM, the TGI [53] was greater than 100 µM and the TGI [54] was greater than 100 µM. It also gave a TGI [17] greater than 100 µM, a TGI [55] greater than 100 µM and a TGI [18] greater than 100 µM. For the same compound, the TGI [19] was greater than 100 µM, the TGI [20] was greater than 100 µM and the TGI [56] was greater than 100 µM. For the same compound, the TGI [57] was greater than 100 µM, the TGI [21] was greater than 100 µM and the TGI [22] was greater than 100 µM. The TGI [23] was greater than 100 µM, the TGI [24] was greater than 100 µM and the TGI [25] was greater than 100 µM. For the same compound, the TGI [26] was greater than 100 µM, the TGI [27] was greater than 100 µM and the TGI [28] was greater than 100 µM. It also gave a TGI [29] greater than 100 µM, a TGI [30] greater than 100 µM and a TGI [31] greater than 100 µM. For the same compound, the TGI [32] was greater than 100 µM, the TGI [33] was greater than 100 µM and the TGI [34] was greater than 100 µM. The TGI [35] was greater than 100 µM, the TGI [36] was 46.7 µM and the TGI [37] was greater than 100 µM. It also gave a TGI [38] greater than 100 µM, a TGI [39] greater than 100 µM and a TGI [40] greater than 100 µM. It also gave a TGI [41] greater than 100 µM, a TGI [42] greater than 100 µM and a TGI [43] greater than 100 µM. It also gave a TGI [45] greater than 100 µM, a TGI [46] greater than 100 µM and a TGI [47] greater than 100 µM. It also gave a TGI [48] greater than 100 µM.

In the case of `O=C1CC(C(OCc2ccccc2)C(OCc2ccccc2)C(OCc2ccccc2)C(COCc2ccccc2)OCc2ccccc2)CC(=O)N1` (stereo not drawn), the TGI [1] is reported as greater than 100 µM, the TGI [3] is reported as greater than 100 µM and the TGI [4] is reported as greater than 100 µM. For the same compound, the TGI [5] was greater than 100 µM, the TGI [7] was greater than 100 µM and the TGI [49] was greater than 100 µM. The TGI [11] was greater than 100 µM, the TGI [12] was greater than 100 µM and the TGI [13] was greater than 100 µM. The TGI [50] was greater than 100 µM, the TGI [51] was greater than 100 µM and the TGI [52] was greater than 100 µM. It also gave a TGI [15] greater than 100 µM, a TGI [16] greater than 100 µM and a TGI [54] greater than 100 µM. For the same compound, the TGI [17] was greater than 100 µM, the TGI [55] was greater than 100 µM and the TGI [18] was greater than 100 µM. It also gave a TGI [19] greater than 100 µM, a TGI [20] greater than 100 µM and a TGI [56] greater than 100 µM. The TGI [21] was greater than 100 µM, the TGI [22] was greater than 100 µM and the TGI [58] was greater than 100 µM. The TGI [23] was greater than 100 µM, the TGI [24] was greater than 100 µM and the TGI [25] was greater than 100 µM. For the same compound, the TGI [26] was greater than 100 µM, the TGI [27] was greater than 100 µM and the TGI [28] was greater than 100 µM. The TGI [29] was greater than 100 µM, the TGI [30] was greater than 100 µM and the TGI [31] was greater than 100 µM. It also gave a TGI [32] greater than 100 µM, a TGI [33] greater than 100 µM and a TGI [34] greater than 100 µM. It also gave a TGI [35] greater than 100 µM, a TGI [36] greater than 100 µM and a TGI [37] greater than 100 µM. The TGI [38] was greater than 100 µM, the TGI [39] was greater than 100 µM and the TGI [40] was greater than 100 µM. It also gave a TGI [41] greater than 100 µM, a TGI [43] greater than 100 µM and a TGI [44] greater than 100 µM. For the same compound, the TGI [47] was greater than 100 µM.

Work on `CC(C)(Oc1ccc2c(=O)cc(-c3ccccc3)oc2c1)C(=O)N1CCN(c2ccccc2)CC1` yielded a TGI [1] greater than 10 µM, a TGI [2] greater than 10 µM and a TGI [4] greater than 10 µM. It also gave a TGI [5] greater than 10 µM, a TGI [7] greater than 10 µM and a TGI [8] greater than 10 µM. For the same compound, the TGI [10] was greater than 10 µM, the TGI [11] was greater than 10 µM and the TGI [12] was greater than 10 µM. The TGI [50] was greater than 10 µM, the TGI [14] was greater than 10 µM and the TGI [51] was greater than 10 µM. The TGI [52] was greater than 10 µM, the TGI [15] was greater than 10 µM and the TGI [16] was greater than 10 µM. It also gave a TGI [53] greater than 10 µM, a TGI [54] greater than 10 µM and a TGI [17] greater than 10 µM. It also gave a TGI [18] greater than 10 µM, a TGI [19] greater than 10 µM and a TGI [20] greater than 10 µM. For the same compound, the TGI [56] was 6.73 µM, the TGI [21] was greater than 10 µM and the TGI [24] was greater than 10 µM. For the same compound, the TGI [26] was greater than 10 µM, the TGI [27] was greater than 10 µM and the TGI [31] was greater than 10 µM. It also gave a TGI [33] greater than 10 µM, a TGI [34] greater than 10 µM and a TGI [35] greater than 10 µM. For the same compound, the TGI [36] was 4.38 µM, the TGI [37] was greater than 10 µM and the TGI [59] was greater than 10 µM. It also gave a TGI [40] greater than 10 µM, a TGI [41] greater than 10 µM and a TGI [43] greater than 10 µM. The TGI [44] was greater than 10 µM, the TGI [47] was greater than 10 µM and the TGI [48] was greater than 10 µM.
